{"source": "patent US10544146B2", "about": "“Bicyclic compounds and their use as antibacterial agents and β-lactamase inhibitors” (priority 2011, dated 2020)", "type_in_all_cases": "cell-based", "key": {"[1]": {"tested_on": "K. pneumo JMI 4088", "experiment": "MIC, antibacterial and synergistic activity", "conditions": "substance alone"}, "[2]": {"tested_on": "E. coli JMI 11103", "experiment": "MIC, antibacterial and synergistic activity", "conditions": "substance alone"}, "[3]": {"tested_on": "E. coli JMI 2665", "experiment": "MIC, antibacterial and synergistic activity", "conditions": "substance alone"}, "[4]": {"tested_on": "P. aerug JMI 2686", "experiment": "MIC, antibacterial and synergistic activity", "conditions": "substance alone"}, "[5]": {"tested_on": "E. coli JMI 4103", "experiment": "MIC, antibacterial and synergistic activity", "conditions": "substance alone"}, "[6]": {"tested_on": "E. coli JMI 2692", "experiment": "MIC, antibacterial and synergistic activity", "conditions": "substance alone", "protocol": "(§1) In the Tables 10-12, compounds of the present invention were tested in combination with various antibiotics against metallo β-lactamase producing bacteria."}, "[7]": {"tested_on": "E. coli JMI 2671", "experiment": "MIC, antibacterial and synergistic activity", "conditions": "substance alone", "protocol": "as §1"}, "[8]": {"tested_on": "K. pneumo JMI 2693", "experiment": "MIC, antibacterial and synergistic activity", "conditions": "substance alone", "protocol": "as §1"}, "[9]": {"tested_on": "A. baumanii JMI 2659", "experiment": "MIC, antibacterial and synergistic activity", "conditions": "substance alone", "protocol": "as §1"}, "[10]": {"tested_on": "E. coli ATCC 25922", "experiment": "MIC, antibacterial and synergistic activity", "protocol": "as §1"}, "[11]": {"tested_on": "E. cloacae JMI 36", "experiment": "MIC, antibacterial and synergistic activity", "conditions": "substance alone", "protocol": "as §1"}, "[12]": {"tested_on": "K. pneumo JMI 2699", "experiment": "MIC, antibacterial and synergistic activity", "conditions": "substance alone", "protocol": "as §1"}, "[13]": {"tested_on": "P. aerug JMI 149", "experiment": "MIC, antibacterial and synergistic activity", "conditions": "substance alone", "protocol": "as §1"}, "[14]": {"tested_on": "E. coli JMI 10767", "experiment": "MIC, antibacterial and synergistic activity", "conditions": "substance alone", "protocol": "as §1"}, "[15]": {"tested_on": "K. pneumo JMI 2697", "experiment": "MIC, antibacterial and synergistic activity", "conditions": "substance alone", "protocol": "as §1"}, "[16]": {"tested_on": "E. coli JMI 10768", "experiment": "MIC, antibacterial and synergistic activity", "conditions": "substance alone"}, "[17]": {"tested_on": "K. pneumo JMI 4109", "experiment": "MIC, antibacterial and synergistic activity", "conditions": "substance alone"}, "[18]": {"tested_on": "E. coli JMI 4080", "experiment": "MIC, antibacterial and synergistic activity", "conditions": "substance alone"}, "[19]": {"tested_on": "E. coli JMI 10770", "experiment": "MIC, antibacterial and synergistic activity", "conditions": "substance alone"}, "[20]": {"tested_on": "K. pneumo JMI 2674", "experiment": "MIC, antibacterial and synergistic activity", "conditions": "substance alone"}, "[21]": {"tested_on": "K. pneumo JMI 2673", "experiment": "MIC, antibacterial and synergistic activity", "conditions": "substance alone"}, "[22]": {"tested_on": "K. pneumo JMI 2681", "experiment": "MIC, antibacterial and synergistic activity", "conditions": "substance alone"}, "[23]": {"tested_on": "metallo β-lactamase producing bacteria", "experiment": "MIC in combination with various antibiotics against metallo β-lactamase producing bacteria (Tables 10-12)", "conditions": "substance alone", "protocol": "as §1"}}, "data": [{"smiles": "C[C@@H](O)[C@H]1C(=O)N2C(C(=O)O)=C(S[C@@H]3CN[C@H](C(=O)N(C)C)C3)[C@H](C)[C@H]12", "note": "[Meropenem, meropenem]", "values": [{"measurement": "MIC alone", "setting": "[1]; K. pneumo JMI 4088, KPC-3 (Cpase)", "value": 512, "unit": "µg/mL"}, {"measurement": "MIC alone", "setting": "[1]; K. pneumo JMI 4088, enzyme KPC-3 (Cpase)", "value": 512, "unit": "µg/mL"}, {"measurement": "MIC alone", "setting": "[2]; E. coli JMI 11103, CTX-M15 (Intermediate ESBL)", "value": "≤1", "unit": "µg/mL"}, {"measurement": "MIC alone", "setting": "[2]; E. coli JMI 11103, enzyme CTX-M15 (Intermediate ESBL)", "value": "≤1", "unit": "µg/mL"}, {"measurement": "MIC alone", "setting": "[3]; E. coli JMI 2665, CMY-2 (Plasmid Cpase)", "value": "≤1", "unit": "µg/mL"}, {"measurement": "MIC alone", "setting": "[3]; E. coli JMI 2665, enzyme CMY-2 (Plasmid Cpase)", "value": "≤1", "unit": "µg/mL"}, {"measurement": "MIC alone", "setting": "[4]; P. aerug JMI 2686, KPC-2 (Cpase)", "value": 512, "unit": "µg/mL"}, {"measurement": "MIC alone", "setting": "[4]; P. aerug JMI 2686, enzyme KPC-2 (Cpase)", "value": 512, "unit": "µg/mL"}, {"measurement": "MIC alone", "setting": "[5]; E. coli JMI 4103, KPC-2, Tem-1, CMY-Type", "value": 64, "unit": "µg/mL"}, {"measurement": "MIC alone", "setting": "[5]; E. coli JMI 4103, enzyme KPC-2, Tem-1, CMY-Type", "value": 64, "unit": "µg/mL"}, {"measurement": "MIC alone", "setting": "[6]; E. coli JMI 2692, NDM-1, TEM-1, CTX-M-15", "value": 256, "unit": "µg/mL"}, {"measurement": "MIC alone", "setting": "[6]; E. coli JMI 2692, enzyme NDM-1, TEM-1, CTX-M-15", "value": 256, "unit": "µg/mL"}, {"measurement": "MIC alone", "setting": "[7]; E. coli JMI 2671, VIM-19 (Cpase)", "value": 64, "unit": "µg/mL"}, {"measurement": "MIC alone", "setting": "[7]; E. coli JMI 2671, enzyme VIM-19 (Cpase)", "value": 64, "unit": "µg/mL"}, {"measurement": "MIC alone", "setting": "[8]; K. pneumo JMI 2693, NDM-1 (Cpase)", "value": 8, "unit": "µg/mL"}, {"measurement": "MIC alone", "setting": "[8]; K. pneumo JMI 2693, enzyme NDM-1 (Cpase)", "value": 8, "unit": "µg/mL"}, {"measurement": "MIC alone", "setting": "[9]; A. baumanii JMI 2659, Ges-14 (Cpase)", "value": 64, "unit": "µg/mL"}, {"measurement": "MIC alone", "setting": "[9]; A. baumanii JMI 2659, enzyme Ges-14 (Cpase)", "value": 64, "unit": "µg/mL"}, {"measurement": "MIC alone", "setting": "[10]; E. coli ATCC 25922, enzyme Wt; substance alone", "value": 0.06, "unit": "µg/mL"}, {"measurement": "MIC alone", "setting": "[10]; E. coli ATCC 25922; enzyme Wt; substance alone", "value": 0.06, "unit": "µg/mL"}, {"measurement": "MIC alone", "setting": "[11]; E. cloacae JMI 36, P99", "value": "≤1", "unit": "µg/mL"}, {"measurement": "MIC alone", "setting": "[11]; E. cloacae JMI 36, enzyme P99", "value": "≤1", "unit": "µg/mL"}, {"measurement": "MIC alone", "setting": "[12]; K. pneumo JMI 2699, VIM-1, CTX-M3", "value": 32, "unit": "µg/mL"}, {"measurement": "MIC alone", "setting": "[12]; K. pneumo JMI 2699, enzyme VIM-1, CTX-M3", "value": 32, "unit": "µg/mL"}, {"measurement": "MIC alone", "setting": "[13]; P. aerug JMI 149, Bla+++D+", "value": 4, "unit": "µg/mL"}, {"measurement": "MIC alone", "setting": "[13]; P. aerug JMI 149, enzyme Bla+++D+", "value": 4, "unit": "µg/mL"}, {"measurement": "MIC alone", "setting": "[14]; E. coli JMI 10767, Wt", "value": "≤1", "unit": "µg/mL"}, {"measurement": "MIC alone", "setting": "[14]; E. coli JMI 10767, enzyme Wt", "value": "≤1", "unit": "µg/mL"}, {"measurement": "MIC alone", "setting": "[15]; K. pneumo JMI 2697, IMP-4 (Cpase)", "value": 64, "unit": "µg/mL"}, {"measurement": "MIC alone", "setting": "[15]; K. pneumo JMI 2697, enzyme IMP-4 (Cpase)", "value": 64, "unit": "µg/mL"}, {"measurement": "MIC alone", "setting": "[16]; E. coli JMI 10768, CTX-M15 (Weak ESBL)", "value": "≤1", "unit": "µg/mL"}, {"measurement": "MIC alone", "setting": "[16]; E. coli JMI 10768, enzyme CTX-M15 (Weak ESBL)", "value": "≤1", "unit": "µg/mL"}, {"measurement": "MIC alone", "setting": "[17]; K. pneumo JMI 4109, SHV-1, SHV-12", "value": "≤1", "unit": "µg/mL"}, {"measurement": "MIC alone", "setting": "[17]; K. pneumo JMI 4109, enzyme SHV-1, SHV-12", "value": "≤1", "unit": "µg/mL"}, {"measurement": "MIC alone", "setting": "[18]; E. coli JMI 4080, Tem-10", "value": "≤1", "unit": "µg/mL"}, {"measurement": "MIC alone", "setting": "[18]; E. coli JMI 4080, enzyme Tem-10", "value": "≤1", "unit": "µg/mL"}, {"measurement": "MIC alone", "setting": "[19]; E. coli JMI 10770, CTX-M15 (Hyper ESBL)", "value": "≤1", "unit": "µg/mL"}, {"measurement": "MIC alone", "setting": "[19]; E. coli JMI 10770, enzyme CTX-M15 (Hyper ESBL)", "value": "≤1", "unit": "µg/mL"}, {"measurement": "MIC alone", "setting": "[20]; K. pneumo JMI 2674, CTX-M15 (ESBL)", "value": "≤1", "unit": "µg/mL"}, {"measurement": "MIC alone", "setting": "[20]; K. pneumo JMI 2674, enzyme CTX-M15 (ESBL)", "value": "≤1", "unit": "µg/mL"}, {"measurement": "MIC alone", "setting": "[21]; K. pneumo JMI 2673, CTX-M14 (ESBL)", "value": "≤1", "unit": "µg/mL"}, {"measurement": "MIC alone", "setting": "[21]; K. pneumo JMI 2673, enzyme CTX-M14 (ESBL)", "value": "≤1", "unit": "µg/mL"}, {"measurement": "MIC alone", "setting": "[22]; K. pneumo JMI 2681, Oxa-48 (Cpase)", "value": 64, "unit": "µg/mL"}, {"measurement": "MIC alone", "setting": "[22]; K. pneumo JMI 2681, enzyme Oxa-48 (Cpase)", "value": 64, "unit": "µg/mL"}, {"measurement": "MIC alone", "setting": "[23]; Citrobacter freundii isolate 49469, NDM-1", "value": 16, "unit": "µg/mL"}, {"measurement": "MIC alone", "setting": "[23]; Enterobacter aerogenes isolate 8397, VIM-1", "value": 64, "unit": "µg/mL"}, {"measurement": "MIC alone", "setting": "[23]; Enterobacter aerogenes isolate 47683, VIM-12", "value": 8, "unit": "µg/mL"}, {"measurement": "MIC alone", "setting": "[23]; Enterobacter cloacae isolate 4, VIM-6", "value": 2, "unit": "µg/mL"}, {"measurement": "MIC alone", "setting": "[23]; Enterobacter cloacae isolate 10, IMP-26", "value": 16, "unit": "µg/mL"}, {"measurement": "MIC alone", "setting": "[23]; Enterobacter cloacae isolate 25, IMP-4", "value": 16, "unit": "µg/mL"}, {"measurement": "MIC alone", "setting": "[23]; Enterobacter cloacae isolate 1068, VIM-2", "value": 2, "unit": "µg/mL"}, {"measurement": "MIC alone", "setting": "[23]; Enterobacter cloacae isolate 1471, VIM-1", "value": 2, "unit": "µg/mL"}, {"measurement": "MIC alone", "setting": "[23]; Enterobacter cloacae isolate 1874, IMP-21", "value": 4, "unit": "µg/mL"}, {"measurement": "MIC alone", "setting": "[23]; Enterobacter cloacae isolate 3686, IMP-1", "value": 8, "unit": "µg/mL"}, {"measurement": "MIC alone", "setting": "[23]; Enterobacter cloacae isolate 53477, NDM-1", "value": 32, "unit": "µg/mL"}, {"measurement": "MIC alone", "setting": "[23]; Escherichia coli isolate 13, IMP-1", "value": 4, "unit": "µg/mL"}, {"measurement": "MIC alone", "setting": "[23]; Escherichia coli isolate 17, NDM-1", "value": 32, "unit": "µg/mL"}, {"measurement": "MIC alone", "setting": "[23]; Escherichia coli isolate 49, NDM-1", "value": 8, "unit": "µg/mL"}, {"measurement": "MIC alone", "setting": "[23]; Escherichia coli isolate 53749, NDM-1", "value": 64, "unit": "µg/mL"}, {"measurement": "MIC alone", "setting": "[23]; Klebsiella oxytoca isolate 24825, IMP-26", "value": 32, "unit": "µg/mL"}, {"measurement": "MIC alone", "setting": "[23]; Klebsiella oxytoca isolate 31141, VIM-23", "value": 2, "unit": "µg/mL"}, {"measurement": "MIC alone", "setting": "[23]; Klebsiella pneumoniae isolate 16, VIM-5", "value": 8, "unit": "µg/mL"}, {"measurement": "MIC alone", "setting": "[23]; Klebsiella pneumoniae isolate 38, NDM-1", "value": 32, "unit": "µg/mL"}, {"measurement": "MIC alone", "setting": "[23]; Providencia stuartii isolate 26582, VIM-1", "value": 1, "unit": "µg/mL"}, {"measurement": "MIC alone", "setting": "[23]; Serratia marcescens isolate 35, IMP-4", "value": 8, "unit": "µg/mL"}, {"measurement": "MIC alone", "setting": "[23]; Serratia marcescens isolate 36098, IMP-19", "value": 8, "unit": "µg/mL"}]}]}
